pEC50: −log10 of the molar value.
How the values were obtained:
E. faecalis F86 = assay: Checkerboard combination study (FIC index); type: cell-based, Enterococcus faecalis; conditions: anti-infective agent Dicloxacillin; isolate susceptible (S)
Method: Enterococcus faecalis, F86. Susceptible clinical isolate. No development of resistance.
(§1) The synergistic effect was studied by checkerboard combination studies exposing cells to 0-64 μg/ml anti-infective agent in the absence or presence of trans-flupenthixol, cis-flupenthixol or trans-clopenthixol. Each experiment was repeated in tripleduplicate. MIC values represent the mean values of two separate experiments,
(§2) A log phase culture of bacteria was diluted with fresh pre-warmed medium and adjusted to a defined OD at 600 nm in order to give a final concentration of 1×10^4 bacteria/ml medium in each well. Each chemosensitising compound was added to the bacterial culture in the wells in two-fold dilutions in order to give final concentrations ranging from 0 to 8 μg/ml. Anti-infective agent was added to the bacterial culture in the wells in two-fold dilutions in order to give final concentrations ranging from 0 to 64 μg/ml Trays were incubated at 37° C. for 16 h. Wells were assessed visually for growth. The Fractional Inhibitory Concentration (FIC) was calculated for each anti-infective agent alone and in combination with trans-flupenthixol, cis-flupenthixol or trans-clopenthixol. The following formulae were used to calculate the FIC index:
(§3) FIC=FICchemosensitising compound+FICanti-infective agent
(§4) FICchemosensitising compound=(MICchemosensitising compound+anti-infective agent)/(MICchemosensitising compound)
(§5) FICanti-infective agent=(MICanti-infective agent+chemosensitising compound/(MICanti-Infective agent)
(§6) Synergy was defined as a FIC index of <0.5.

S. aureus O11 [1] = assay: Checkerboard combination study (FIC index); type: cell-based, Staphylococcus aureus; conditions: anti-infective agent Dicloxacillin; isolate susceptible (S)
Method: Staphylococcus aureus O11. Clinical isolate resistant to penicillin. Susceptible to methicillin, tetracycline, beta-lactams, fluoroquinolones, chloramphenicol and aminoglycosides.
as §1, §2, §3, §4, §5, §6

E. coli 331ME = assay: Checkerboard combination study (FIC index); type: cell-based; conditions: MDR isolate
Method: E. coli 331 ME. In vivo-selected multidrug resistant clinical isolates of E. coli. Strains were isolated from a patient with severe cystitis/urosepsis. Resistant to tetracycline, beta-lactams, fluoroquinolones, chloramphenicol and aminoglycosides.
as §1, §2, §3, §4, §5, §6

P. aeruginosa 432b = assay: Checkerboard combination study (FIC index); type: cell-based; conditions: isolate resistant (R)
Method: P. aeruginosa 432b. Clinical multidrug resistant isolate. Resistant to tetracycline, beta-lactams, fluoroquinolones, and aminoglycosides. Beta-lactamase producing, changes in Penicillin Binding Proteins and changes in Outer Membrane Proteins.
as §1, §2, §3, §4, §5, §6

S. aureus O11 [2] = type: cell-based
[3] = test system: Enterococcus faecalis BG-029; assay: Mouse peritonitis model, bacterial counts in peritoneal fluid; type: in vivo, NMRI mice; conditions: neutropenic mice; subcutaneous; 6 h; ciprofloxacin 12.5 mg per mouse, trans-clopenthixol 5 mg per kg, alone or combined
Method: Female NMRI mice (age, approximately 6 to 8 weeks; weight, 30±2 g) were used for the mouse […] peritonitis model (as described below). Bacterial suspensions were prepared from fresh overnight cultures (made from frozen stock cultures) on 5% blood agar plates as described above. […] The size of the inoculum was determined by viability counting on 5% blood agar. Neutropenia was introduced by pretreating the mice with cyclophosphamide (6 mg daily for three days). […] Inoculated untreated control mice were included in all trials. […] After the mice were killed, peritoneal washes were performed by injecting 2 ml of sterile saline intraperitoneally, followed by massage of the abdomen and then opening of the peritoneum to collect the fluid.

[4] = test system: Fluconazole Resistant Candida albicans; assay: Checkerboard combination study on fungals, broth microdilution (NCCLS M27-A); type: cell-based; conditions: for FIC index: fluconazole with trans-clopenthixol
Method: The synergistic effect of Trans-clopenthixol was studied by checkerboard combination studies exposing cells to 0-256 μg/ml anti-infective agent in the absence or presence of trans-clopenthixol (0 to 8 μg/ml in two-fold dilutions). Each experiment was repeated in tripleduplicate. MIC values represent the mean values of two separate experiments.
Clinical Isolate of a Fluconazole Resistant Candida albicans from a Patient with candidemia.
The isolates were subcultured for 24 h on Sabouraud glucose agar before susceptibility testing.
Broth microdilution tests were performed according to NCCLS document M27-A (Ref: National Committee for Clinical Laboratory Standards. (1997). Reference Method for Broth Dilution Antifungal Susceptibility Testing of Yeasts: Approved Standard M27-A. NCCLS, Wayne, Pa.)
Microtitre plates were read spectrophotometrically at 530 nm, after mixing the wells by pipetting to resuspend yeast sediments.
The Fractional Inhibitory Concentration (FIC) was calculated for the anti-infective agent alone and in combination with trans-clopenthixol. The following formulae were used to calculate the FIC index:
as §3, §4
FICanti-infective agent=(MICanti-infective agent+chemosensitising compound/(MICanti-infective agent)
as §6

HIV-1 strain HTLV-IIIB = assay: Inhibition of HIV-1 replication in MT4 cells (MTT assay); type: cell-based
Method: Each experiment was repeated in tripleduplicate. MIC values represent the mean values of two separate experiments.
The HIV-1 strain HTLV-IIIB were propagated in H9 cells at 37° C., 5% CO2 using RPMI 1640 with 10% heat-inactivated foetal calf serum (FCS) and antibiotics (growth medium). Culture supernatant was filtered ([…]), aliquotted, and stored at −80° C. until use. The HIV-1 strain was obtained from NIH AIDS Research and Reference Program.
(§7) Compounds were examined for possible antiviral activity against strain 111B of HIV-1 using MT4 cells as target cells. MT4 cells were incubated with virus (0.005 MOI) and growth medium containing the test dilutions of compound(s) for six days in parallel with virus-infected and uninfected control cultures without compound added. Expression of HIV in the cultures was indirectly quantified using the MTT assay as previously described. Compounds mediating less than 30% reduction of HIV expression were considered without biological activity. Compounds were tested in parallel for cytotoxic effect in uninfected MT4 cultures containing the test dilutions of compound as described above. Cultures for test of both antiviral activity and cytotoxic effect were set up in tripleduplicates, […] per culture in micro titre plates.
The 50% inhibitory concentration was determined by interpolation from the plots of percent inhibition versus concentration of compound.
EC50 is defined as the effective concentration that inhibits 50% of viral production, 50% of viral infectivity, or 50% of the virus-induced cytopathic effect.

uninfected MT4 cells = assay: Cytotoxic effect in uninfected MT4 cultures; type: cell-based
Method: as §7
CC50 is defined as the inhibitory concentration that reduces cellular growth or viability of uninfected cells by 50%.

[5] = anti-infective agent Ciprofloxacin
[6] = anti-infective agent Gentamicin
[7] = anti-infective agent Piperacillin
[8] = alone, at the concentrations used

With `OCCN1CCN(CC/C=C2\c3ccccc3Sc3ccc(Cl)cc32)CC1` [trans-clopenthixol] the FIC index (E. faecalis F86) was 0.25, the FIC index (S. aureus O11 [1]) was 0.25 and the FIC index (E. coli 331ME; [5]) was 0.003. For the same compound, the FIC index (E. coli 331ME; [6]) was 0.008, the FIC index (E. coli 331ME; [7]) was 0.063 and the FIC index (P. aeruginosa 432b; [5]) was 0.008. For the same compound, the FIC index (P. aeruginosa 432b; [6]) was 0.032, the FIC index (P. aeruginosa 432b; [7]) was 0.063 and the “Frequency on emergence of resistance” value (S. aureus O11 [2]; 1 μg of ciprofloxacin per ml (two times the MIC) in the presence of inhibitor (1 μg/ml)) was <1 × 10^−10. For the same compound, the “decrease of the frequency of spontaneous emergence of ciprofloxacin resistance” value (S. aureus O11 [2]; inhibitor 1 μg/ml) was at least 100 fold, the “toxic effect of the inhibitor on S. aureus plated in the absence of ciprofloxacin (in words)” value (S. aureus O11 [2]; inhibitor 1 μg/ml) was “affected neither the colony-forming ability nor the colony size” and the “bactericidal activity in mouse peritoneum (in words)” value [3] was “did not affect the bacteria”. It also gave an MIC ([4]; agent alone) of 32 µg/mL, an FIC index [4] of under 0.5 and an FIC index ([4]; listed as Trans-clopenthixol) of 0.16. The effective concentrations ([4]; in combination with an anti-fungal agent) was at most 3 µg/mL, the “antiviral effect (in words)” value (HIV-1 strain HTLV-IIIB; [8]) was “no antiviral or cytotoxic effect” and the pEC50 (HIV-1 strain HTLV-IIIB; compound alone, MT4 cells, six days) was under 5.52. The “cytotoxic effect (in words)” value (uninfected MT4 cells; [8]) was “no antiviral or cytotoxic effect” and the CC50 (uninfected MT4 cells; compound alone, uninfected MT4) was over 3000 nM.
